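Briefly, cells in 96-well plates were exposed to five compound concentrations for 48 h, and endpoints were estimated by linear interpolation. GI50 is the concentration that inhibits growth by half. The concentration for full growth arrest is given as TGI.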
Columns and labels:
Test in all cases: NCI tumour cell line growth inhibition, 48 h
OVCAR-4 ovarian = test system: OVCAR-4 ovarian
HS 578T breast = test system: HS 578T breast
CAKI-1 renal = test system: CAKI-1 renal
OVCAR-8 ovarian = test system: OVCAR-8 ovarian
EKVX NSCLC = test system: EKVX NSCLC
SK-MEL-2 melanoma = test system: SK-MEL-2 melanoma
NCI-H226 lung = test system: NCI-H226 lung
PC-3 prostate = test system: PC-3 prostate
786-0 renal = test system: 786-0 renal
RPMI-8226 leukemia = test system: RPMI-8226 leukemia
SW-620 colon = test system: SW-620 colon
HOP-92 NSCLC = test system: HOP-92 NSCLC
COLO 205 colon = test system: COLO 205 colon
MDA-MB-231 breast = test system: MDA-MB-231 breast
UACC-257 melanoma = test system: UACC-257 melanoma
HT29 colon = test system: HT29 colon
BT-549 breast = test system: BT-549 breast
OVCAR-5 ovarian = test system: OVCAR-5 ovarian
DU-145 prostate = test system: DU-145 prostate
T-47D breast = test system: T-47D breast
TK-10 renal = test system: TK-10 renal
OVCAR-3 ovarian = test system: OVCAR-3 ovarian
HOP-62 NSCLC = test system: HOP-62 NSCLC
CCRF-CEM leukemia = test system: CCRF-CEM leukemia
MCF7 breast = test system: MCF7 breast
SNB-75 CNS = test system: SNB-75 CNS
UACC-62 melanoma = test system: UACC-62 melanoma
MALME-3M melanoma = test system: MALME-3M melanoma
NCI-H23 lung = test system: NCI-H23 lung
IGROV1 ovarian = test system: IGROV1 ovarian
SR leukemia = test system: SR leukemia
HCT-116 colon = test system: HCT-116 colon
SK-MEL-5 melanoma = test system: SK-MEL-5 melanoma
HCT-15 colon = test system: HCT-15 colon
NCI-H460 lung = test system: NCI-H460 lung
NCI-H522 lung = test system: NCI-H522 lung
RXF 393 renal = test system: RXF 393 renal
SK-OV-3 ovarian = test system: SK-OV-3 ovarian
SF-539 CNS = test system: SF-539 CNS
A498 renal = test system: A498 renal
LOX IMVI melanoma = test system: LOX IMVI melanoma
HCC-2998 colon = test system: HCC-2998 colon
SF-295 CNS = test system: SF-295 CNS
MDA-MB-435 = test system: MDA-MB-435
A549 NSCLC = test system: A549 NSCLC
NCI/ADR-RES ovarian = test system: NCI/ADR-RES ovarian
UO-31 renal = test system: UO-31 renal
U251 CNS = test system: U251 CNS
M14 melanoma = test system: M14 melanoma
KM12 colon = test system: KM12 colon
SK-MEL-28 melanoma = test system: SK-MEL-28 melanoma
SF-268 CNS = test system: SF-268 CNS
SNB-19 CNS = test system: SNB-19 CNS
MOLT-4 leukemia = test system: MOLT-4 leukemia
HL-60(TB) leukemia = test system: HL-60(TB) leukemia
K-562 leukemia = test system: K-562 leukemia
SN12C renal = test system: SN12C renal
ACHN renal = test system: ACHN renal

With `CCOC(=O)C1=CSC2=NC3=C(CCC/C3=C\c3cc(OC)c(OC)c(OC)c3)C(c3cc(OC)c(OC)c(OC)c3)N12` (configuration not stated) the GI50 (OVCAR-4 ovarian) was 1320 nM, the TGI (OVCAR-4 ovarian) was greater than 100000 nM and the GI50 (HS 578T breast) was 2470 nM. The TGI (HS 578T breast) was greater than 100000 nM, the GI50 (CAKI-1 renal) was 6770 nM and the TGI (CAKI-1 renal) was greater than 100000 nM. For the same molecule, the GI50 (OVCAR-8 ovarian) was 376 nM, the TGI (OVCAR-8 ovarian) was greater than 100000 nM and the GI50 (EKVX NSCLC) was greater than 100000 nM. The TGI (EKVX NSCLC) was greater than 100000 nM, the GI50 (SK-MEL-2 melanoma) was greater than 100000 nM and the TGI (SK-MEL-2 melanoma) was greater than 100000 nM. The GI50 (NCI-H226 lung) was 2400 nM, the TGI (NCI-H226 lung) was greater than 100000 nM and the GI50 (PC-3 prostate) was 751 nM. The TGI (PC-3 prostate) was greater than 100000 nM, the GI50 (786-0 renal) was greater than 100000 nM and the TGI (786-0 renal) was greater than 100000 nM. It also gave a GI50 (RPMI-8226 leukemia) of 333 nM, a TGI (RPMI-8226 leukemia) of 1670 nM and a GI50 (SW-620 colon) of 1540 nM. For the same molecule, the TGI (SW-620 colon) was greater than 100000 nM, the GI50 (HOP-92 NSCLC) was 818 nM and the TGI (HOP-92 NSCLC) was 7500 nM. The GI50 (COLO 205 colon) was 3050 nM, the TGI (COLO 205 colon) was greater than 100000 nM and the GI50 (MDA-MB-231 breast) was 3200 nM. It also gave a TGI (MDA-MB-231 breast) greater than 100000 nM, a GI50 (UACC-257 melanoma) of 1730 nM and a TGI (UACC-257 melanoma) greater than 100000 nM. The GI50 (HT29 colon) was 1340 nM, the TGI (HT29 colon) was greater than 100000 nM and the GI50 (BT-549 breast) was 2640 nM. For the same molecule, the TGI (BT-549 breast) was greater than 100000 nM, the GI50 (OVCAR-5 ovarian) was greater than 100000 nM and the TGI (OVCAR-5 ovarian) was greater than 100000 nM. For the same molecule, the GI50 (DU-145 prostate) was 3480 nM, the TGI (DU-145 prostate) was greater than 100000 nM and the GI50 (T-47D breast) was 3830 nM. For the same molecule, the TGI (T-47D breast) was greater than 100000 nM, the GI50 (TK-10 renal) was 4330 nM and the TGI (TK-10 renal) was greater than 100000 nM. For the same molecule, the GI50 (OVCAR-3 ovarian) was 2960 nM, the TGI (OVCAR-3 ovarian) was greater than 100000 nM and the GI50 (HOP-62 NSCLC) was 1430 nM. For the same molecule, the TGI (HOP-62 NSCLC) was greater than 100000 nM, the GI50 (CCRF-CEM leukemia) was 470 nM and the TGI (CCRF-CEM leukemia) was 3740 nM. For the same molecule, the GI50 (MCF7 breast) was 2660 nM, the TGI (MCF7 breast) was greater than 100000 nM and the GI50 (SNB-75 CNS) was 3740 nM. It also gave a TGI (SNB-75 CNS) greater than 100000 nM, a GI50 (UACC-62 melanoma) of 2710 nM and a TGI (UACC-62 melanoma) greater than 100000 nM.

`Nc1ccn([C@@H]2S[C@H](CO)[C@@H](O)[C@@H]2F)c(=O)n1` was tested, and the GI50 (OVCAR-4 ovarian) was greater than 100000 nM, the TGI (OVCAR-4 ovarian) was greater than 100000 nM and the GI50 (HS 578T breast) was greater than 100000 nM. The TGI (HS 578T breast) was greater than 100000 nM, the GI50 (MALME-3M melanoma) was 1520 nM and the TGI (MALME-3M melanoma) was greater than 100000 nM. For the same molecule, the GI50 (NCI-H23 lung) was 58.6 nM, the TGI (NCI-H23 lung) was greater than 49000 nM and the GI50 (IGROV1 ovarian) was 740 nM. For the same molecule, the TGI (IGROV1 ovarian) was greater than 100000 nM, the GI50 (SR leukemia) was 57.5 nM and the TGI (SR leukemia) was greater than 100000 nM. It also gave a GI50 (HCT-116 colon) of 39.3 nM, a TGI (HCT-116 colon) greater than 100000 nM and a GI50 (SK-MEL-5 melanoma) of 178 nM. The TGI (SK-MEL-5 melanoma) was greater than 100000 nM, the GI50 (HCT-15 colon) was 413 nM and the TGI (HCT-15 colon) was greater than 100000 nM. For the same molecule, the GI50 (NCI-H460 lung) was 138 nM, the TGI (NCI-H460 lung) was greater than 100000 nM and the GI50 (NCI-H522 lung) was 8830 nM. For the same molecule, the TGI (NCI-H522 lung) was greater than 100000 nM, the GI50 (CAKI-1 renal) was 41.2 nM and the TGI (CAKI-1 renal) was greater than 100000 nM. It also gave a GI50 (OVCAR-8 ovarian) of 26 nM, a TGI (OVCAR-8 ovarian) greater than 100000 nM and a GI50 (RXF 393 renal) of 289 nM. It also gave a TGI (RXF 393 renal) greater than 22400 nM, a GI50 (EKVX NSCLC) of 648 nM and a TGI (EKVX NSCLC) greater than 100000 nM. For the same molecule, the GI50 (SK-OV-3 ovarian) was 352 nM, the TGI (SK-OV-3 ovarian) was greater than 100000 nM and the GI50 (SK-MEL-2 melanoma) was greater than 100000 nM. The TGI (SK-MEL-2 melanoma) was greater than 100000 nM, the GI50 (NCI-H226 lung) was 485 nM and the TGI (NCI-H226 lung) was greater than 48400 nM. It also gave a GI50 (786-0 renal) of 109 nM, a GI50 (SF-539 CNS) of 317 nM and a GI50 (A498 renal) of 70.9 nM. It also gave a GI50 (LOX IMVI melanoma) of 224 nM, a TGI (LOX IMVI melanoma) greater than 100000 nM and a GI50 (HCC-2998 colon) of 3030 nM. For the same molecule, the TGI (HCC-2998 colon) was greater than 100000 nM, the GI50 (SF-295 CNS) was 452 nM and the TGI (SF-295 CNS) was greater than 24700 nM. It also gave a GI50 (RPMI-8226 leukemia) of 2650 nM, a TGI (RPMI-8226 leukemia) greater than 100000 nM and a GI50 (SW-620 colon) of 252 nM. For the same molecule, the TGI (SW-620 colon) was greater than 100000 nM, the GI50 (MDA-MB-435) was 180 nM and the TGI (MDA-MB-435) was greater than 100000 nM. For the same molecule, the GI50 (A549 NSCLC) was 161 nM, the TGI (A549 NSCLC) was greater than 100000 nM and the GI50 (NCI/ADR-RES ovarian) was 32.5 nM. The TGI (NCI/ADR-RES ovarian) was greater than 100000 nM, the GI50 (HOP-92 NSCLC) was 278 nM and the TGI (HOP-92 NSCLC) was greater than 100000 nM. For the same molecule, the GI50 (COLO 205 colon) was 407 nM, the TGI (COLO 205 colon) was greater than 100000 nM and the GI50 (UO-31 renal) was 35.6 nM. For the same molecule, the GI50 (MDA-MB-231 breast) was greater than 100000 nM, the TGI (MDA-MB-231 breast) was greater than 100000 nM and the GI50 (U251 CNS) was 367 nM. It also gave a TGI (U251 CNS) greater than 100000 nM, a GI50 (UACC-257 melanoma) of 1340 nM and a TGI (UACC-257 melanoma) greater than 100000 nM. For the same molecule, the GI50 (M14 melanoma) was 61.6 nM, the TGI (M14 melanoma) was 842 nM and the GI50 (KM12 colon) was 8650 nM. For the same molecule, the TGI (KM12 colon) was greater than 100000 nM, the GI50 (SK-MEL-28 melanoma) was greater than 100000 nM and the TGI (SK-MEL-28 melanoma) was greater than 100000 nM. It also gave a GI50 (SF-268 CNS) of 260 nM, a TGI (SF-268 CNS) greater than 100000 nM and a GI50 (SNB-19 CNS) of 58.1 nM. The TGI (SNB-19 CNS) was greater than 100000 nM, the GI50 (MOLT-4 leukemia) was 30.4 nM and the TGI (MOLT-4 leukemia) was greater than 100000 nM. It also gave a GI50 (HL-60(TB) leukemia) of 79.2 nM, a GI50 (HT29 colon) of 178 nM and a TGI (HT29 colon) greater than 100000 nM. It also gave a GI50 (BT-549 breast) of 1740 nM, a TGI (BT-549 breast) greater than 100000 nM and a GI50 (OVCAR-5 ovarian) of 509 nM. The TGI (OVCAR-5 ovarian) was greater than 100000 nM, the GI50 (DU-145 prostate) was 42.4 nM and the TGI (DU-145 prostate) was greater than 100000 nM. It also gave a GI50 (T-47D breast) of 1350 nM, a TGI (T-47D breast) greater than 100000 nM and a GI50 (TK-10 renal) greater than 100000 nM. The TGI (TK-10 renal) was greater than 100000 nM, the GI50 (K-562 leukemia) was 230 nM and the TGI (K-562 leukemia) was greater than 100000 nM. For the same molecule, the GI50 (SN12C renal) was 40.5 nM, the TGI (SN12C renal) was greater than 100000 nM and the GI50 (ACHN renal) was 27.1 nM. It also gave a GI50 (OVCAR-3 ovarian) greater than 51100 nM, a TGI (OVCAR-3 ovarian) greater than 100000 nM and a GI50 (HOP-62 NSCLC) of 52.6 nM. The TGI (HOP-62 NSCLC) was greater than 74300 nM, the GI50 (CCRF-CEM leukemia) was less than 10 nM and the TGI (CCRF-CEM leukemia) was greater than 100000 nM. The GI50 (MCF7 breast) was 54.5 nM, the TGI (MCF7 breast) was greater than 100000 nM and the GI50 (SNB-75 CNS) was 2730 nM. The TGI (SNB-75 CNS) was greater than 100000 nM, the GI50 (UACC-62 melanoma) was 372 nM and the TGI (UACC-62 melanoma) was greater than 38200 nM.
